# Laboratory results published in patent US11969730B2, “Apparatus for sensor-based examination of biological cells” (FRAUNHOFER-GESELLSCHAFT ZUR FÖRDERUNG DER ANGEWANDTEN …, priority 2017, dated 2024).
# Assays:
# HaCaT cells [1] = assay: impedimetric toxicity study (cytotoxicity assay) with confluent HaCaT cells on electrode array; format: cell-based, human; details: 32 kHz; increasing concentrations; applied 24 h after thawing or seeding; 37° C.; cryopreserved (7 days, −80° C.) and newly seeded cells
# Experimental: IZI at 32 kHz for confluent HaCaT cells that were incubated (cytotoxicity assay) at the time t=0 h with increasing concentrations of CdCl2.
# The cell density was identical in both cases. Increasing concentrations of the heavy metal salt CdCl2 served as the chemical model toxin. The assay was carried out 24 h after thawing, respectively seeding.
# The cell response to the addition of CdCl2 is documented with reference to the time profile of the normed impedance at a measurement frequency of 32 kHz. […] The time developments, also highly characteristic of the impedance after the addition of CdCl2 to the confluent cell layers for every concentration of CdCl2 for the cryopreserved cells are indistinguishably similar to those of the newly seeded cells.
# HaCaT cells [2] = assay: impedimetric readout of adhesion of HaCaT cells to the electrode surface after cryopreservation and thawing; format: cell-based, human; details: 10% by volume in the freezing medium; cryopreservation over 5 weeks at −80° C.; capacitance at 40 kHz
# Experimental: The cell density on the sensor surface is 450,000 cells/cm^2 (T=37° C.) in both cases. The decrease in the capacitance reflects the increasing electrode coverage.
# To check the viability state of the frozen cells and then thawed again, the kinetics of the adhesion of human skin cells (keratinocytes, HaCaT cells) to the electrode surface (of gold) after a cryopreservation of more than five weeks at −80° C. were tracked directly after thawing (revitalization) with time resolution via an impedimetric readout (see FIG. 2A). The time development of the capacitance C of the total system at a measurement frequency of 40 kHz is in linear dependence on the occupation of the electrode with adherent cells and thus reflects the progressing process of the cell adhesion.
# The culture medium is modeled on the freezing medium after revitalizing the cells in the chemical composition. Variable DMSO contents were selected to freeze the cells to be able to directly optimize the freezing medium for the respective cell line.
Compound,time profile of the normed impedance after addition of CdCl2 (HaCaT cells [1]),effect on the cell viability after thawing (HaCaT cells [2])
[Cl][Cd][Cl] [CdCl2],decreases in dependence on the dosage,–
C[S+](C)[O-] [DMSO],–,no negative effect
